In patent US11111233B2, “Amino pyrimidine compound for inhibiting protein tyrosine kinase activity” (Shenzhen TargetRx, Inc., priority 2016, dated 2021):
Like-named read-outs stand apart in the source and are kept apart here. Values belong to the compound of their own block, whether it stands above or below them.

How the values were obtained:
WT EGFR = WT EGFR (Homo sapiens (Human), UniProt P00533); test: Kinase inhibition assay (HTRF), WT EGFR; format: biochemical
[1] = system: Skin cancer cell line A431 (WT); test: Cytotoxicity test (MTS cell viability), A431; format: cell-based; conditions: Homo sapiens
[2] = system: lung cancer cells HCC827 (Del19); test: Cytotoxicity test (MTS cell viability), HCC827; format: cell-based; conditions: Homo sapiens
EGFR [L858R/T790M] = EGFR [L858R/T790M] (Homo sapiens (Human), UniProt P00533, L858R/T790M); test: Kinase inhibition assay (HTRF), EGFR [L858R/T790M]; format: biochemical
Sequence of EGFR [L858R/T790M] (P00533 25-1210 T790M/L858R): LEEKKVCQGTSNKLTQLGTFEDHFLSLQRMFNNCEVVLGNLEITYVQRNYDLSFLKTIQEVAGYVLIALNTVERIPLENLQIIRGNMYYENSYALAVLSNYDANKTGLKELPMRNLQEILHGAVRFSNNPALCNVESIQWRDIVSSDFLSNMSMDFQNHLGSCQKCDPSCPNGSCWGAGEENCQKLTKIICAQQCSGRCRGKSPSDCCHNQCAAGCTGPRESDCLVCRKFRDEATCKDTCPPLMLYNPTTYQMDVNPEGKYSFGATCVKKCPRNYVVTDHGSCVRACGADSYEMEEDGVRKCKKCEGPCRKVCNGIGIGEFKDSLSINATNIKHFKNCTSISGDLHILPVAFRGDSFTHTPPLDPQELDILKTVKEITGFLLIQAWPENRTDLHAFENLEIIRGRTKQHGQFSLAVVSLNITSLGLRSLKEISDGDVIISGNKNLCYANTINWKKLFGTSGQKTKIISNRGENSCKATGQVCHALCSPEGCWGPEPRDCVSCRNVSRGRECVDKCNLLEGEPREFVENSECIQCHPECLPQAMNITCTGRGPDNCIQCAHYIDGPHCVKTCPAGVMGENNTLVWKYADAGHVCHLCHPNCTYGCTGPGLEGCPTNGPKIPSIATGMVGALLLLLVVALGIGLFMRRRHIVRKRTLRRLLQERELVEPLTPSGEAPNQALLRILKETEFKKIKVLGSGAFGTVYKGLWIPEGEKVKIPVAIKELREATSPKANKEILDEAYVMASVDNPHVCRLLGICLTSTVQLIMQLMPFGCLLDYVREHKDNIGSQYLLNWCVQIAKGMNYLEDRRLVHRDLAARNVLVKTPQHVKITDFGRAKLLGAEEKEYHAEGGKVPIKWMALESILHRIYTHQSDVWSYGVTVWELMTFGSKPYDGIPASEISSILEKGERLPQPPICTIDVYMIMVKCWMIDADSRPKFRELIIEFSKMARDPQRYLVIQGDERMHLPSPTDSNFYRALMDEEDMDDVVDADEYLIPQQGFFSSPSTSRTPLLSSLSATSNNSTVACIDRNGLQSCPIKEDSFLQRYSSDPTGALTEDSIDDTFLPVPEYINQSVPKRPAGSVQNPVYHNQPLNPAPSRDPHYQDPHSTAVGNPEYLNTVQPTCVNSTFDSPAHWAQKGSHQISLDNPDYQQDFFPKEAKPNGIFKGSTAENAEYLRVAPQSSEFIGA

[3] = HTRF Kinase TK kit, 10 min pre-incubation, 20 min reaction
[4] = A-431, MTS, 72 hours, read-out: A431 (WT) IC50
[5] = HCC827, MTS, 72 hours, read-out: HCC827 (Del19) IC50
[6] = HTRF Kinase TK kit, 10 min pre-incubation, 20 min reaction, read-out: EGFR(L858R/T790M) IC50
[7] = HCC827, 72 h, read-out: HCC827 (Del19) IC50(nM)

Sequence of WT EGFR (P00533 25-1210): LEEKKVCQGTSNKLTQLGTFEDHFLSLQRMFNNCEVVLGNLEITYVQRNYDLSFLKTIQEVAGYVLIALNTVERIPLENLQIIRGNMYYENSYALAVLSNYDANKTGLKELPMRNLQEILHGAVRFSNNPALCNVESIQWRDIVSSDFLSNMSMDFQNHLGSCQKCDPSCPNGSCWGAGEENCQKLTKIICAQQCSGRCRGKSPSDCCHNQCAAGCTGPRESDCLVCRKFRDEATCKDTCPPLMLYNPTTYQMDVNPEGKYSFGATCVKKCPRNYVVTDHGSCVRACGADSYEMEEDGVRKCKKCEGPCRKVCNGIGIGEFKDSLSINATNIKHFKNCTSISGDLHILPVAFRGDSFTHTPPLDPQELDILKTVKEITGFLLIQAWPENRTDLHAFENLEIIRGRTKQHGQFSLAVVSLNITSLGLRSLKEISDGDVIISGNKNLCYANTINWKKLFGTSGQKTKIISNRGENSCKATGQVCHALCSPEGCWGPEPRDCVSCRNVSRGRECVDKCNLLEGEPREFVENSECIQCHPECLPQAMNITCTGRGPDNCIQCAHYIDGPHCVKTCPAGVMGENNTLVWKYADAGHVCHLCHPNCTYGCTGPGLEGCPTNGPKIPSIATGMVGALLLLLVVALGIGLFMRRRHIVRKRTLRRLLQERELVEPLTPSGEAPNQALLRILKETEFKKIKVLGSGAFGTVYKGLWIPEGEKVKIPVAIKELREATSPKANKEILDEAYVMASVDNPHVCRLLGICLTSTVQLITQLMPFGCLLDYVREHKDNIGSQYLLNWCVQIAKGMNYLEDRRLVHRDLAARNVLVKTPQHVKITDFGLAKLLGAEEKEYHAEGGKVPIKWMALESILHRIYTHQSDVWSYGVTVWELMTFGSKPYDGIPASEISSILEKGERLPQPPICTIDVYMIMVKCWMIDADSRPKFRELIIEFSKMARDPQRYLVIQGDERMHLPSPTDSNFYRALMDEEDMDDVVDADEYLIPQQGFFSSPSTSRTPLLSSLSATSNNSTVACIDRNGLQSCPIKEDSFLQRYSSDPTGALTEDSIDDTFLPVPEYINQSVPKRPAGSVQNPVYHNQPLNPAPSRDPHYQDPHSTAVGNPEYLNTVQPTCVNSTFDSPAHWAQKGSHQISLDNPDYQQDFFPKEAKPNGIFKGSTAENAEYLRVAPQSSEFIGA

Structure (SMILES): C=CC(=O)Nc1cc(Nc2ncc(Br)c(-c3cc(F)c4nc(C)n(C(C)C)c4c3)n2)c(OC)cc1N(C)CCN(C)C [Example 8, N-(2-((2-(dimethylamino)ethyl)(methyl)amino)-5-((5-bromo-4-(4-fluoro-1-isopropyl-2-methyl-1H-benzo[d]imidazole-6-yl)pyrimidin-2-yl)amino)-4-methoxyphenyl)acrylamide]
IC50 (WT EGFR; [3]): 1 to 50 nM
IC50 [1, 4]: > 1000 nM
IC50 [2, 5]: 10 to 100 nM
IC50 (EGFR [L858R/T790M]; [6]): 1 to 50 nM

Structure (SMILES): C=CC(=O)Nc1cc(Nc2nccc(-c3cc(F)c4nc(C)n(C(C)C)c4c3)n2)c(OCC)cc1N(C)CCN(C)C [Example 48, N-(2-((2-(dimethylamino)ethyl)(methyl)amino)-4-ethoxy-5-((4-(4-fluoro-1-isopropyl-2-methyl-1H-benzo[d]imidazole-6-yl)pyrimidin-2-yl)amino)phenyl)acrylamide]
IC50 (WT EGFR; [3]): 1 to 50 nM
IC50 [1, 4]: 400 to 1000 nM
IC50 [2, 7]: < 10 nM
IC50 (EGFR [L858R/T790M]; [6]): < 1 nM

Structure (SMILES): C=CC(=O)Nc1cc(Nc2nccc(-c3ccc4nn(C)c(C(C)C)c4c3)n2)c(OC)cc1N(C)CCN(C)C [Example 42, N-(2-((2-(dimethylamino)ethyl)(methyl)amino)-5-((4-(3-isopropyl-2-methyl-2H-indazole-5-yl)pyrimidin-2-yl)amino)-4-methoxyphenyl)acrylamide]
IC50 (WT EGFR; [3]): < 1 nM
IC50 [1, 4]: 100 to 400 nM
IC50 [2, 5]: < 10 nM
IC50 (EGFR [L858R/T790M]; [6]): < 1 nM

Structure (SMILES): C=CC(=O)Nc1cc(Nc2nccc(-c3cnc4nc(C)n(C(C)C)c4c3)n2)c(OC)cc1N(C)CCN(C)C [Example 22, N-(2-((2-(dimethylamino)ethyl)(methyl)amino)-5-((4-(1-isopropyl-2-methyl-1H-imidazo[4,5-b]pyridine-6-yl)pyrimidin-2-yl)amino)-4-methoxyphenyl)acrylamide]
IC50 (WT EGFR; [3]): 1 to 50 nM
IC50 ([1]; A-431, 72 h, read-out: A431 (WT) IC50(nM)): 100 to 400 nM
IC50 [2, 7]: 10 to 100 nM
IC50 (EGFR [L858R/T790M]; [6]): 1 to 50 nM

Structure (SMILES): C=CC(=O)Nc1cc(Nc2nccc(-c3cc(F)c4nc(C)n(C(C)C)c4c3)n2)c(OC)cc1OCCOC [Example 10, N-(2-(2-methoxy-ethyl-oxy)-5-((4-(4-fluoro-1-isopropyl-2-methyl-1H-benzo[d]imidazole-6-yl)pyrimidin-2-yl)amino)-4-methoxyphenyl)acrylamide]
IC50 (WT EGFR): > 100 nM
IC50 [1, 4]: > 1000 nM
IC50 [2, 7]: 400 to 1000 nM
IC50 (EGFR [L858R/T790M]): 50 to 100 nM

Structure (SMILES): C=CC(=O)Nc1cc(Nc2ncc(C3CC3)c(-c3cc(F)c4nc(C)n(C(C)C)c4c3)n2)c(OC)cc1N(C)CCN(C)C [Example 9, N-(2-((2-(dimethylamino)ethyl)(methyl)amino)-5-((5-cyclopropyl-4-(4-fluoro-1-isopropyl-2-methyl-1H-benzo[d]imidazole-6-yl)pyrimidin-2-yl)amino)-4-methoxyphenyl)acrylamide]
IC50 (WT EGFR; [3]): > 100 nM
IC50 [1, 4]: > 1000 nM
IC50 [2, 5]: 400 to 1000 nM
IC50 (EGFR [L858R/T790M]; [6]): 1 to 50 nM

Structure (SMILES): C=CC(=O)Nc1cc(Nc2nccc(-c3cc(F)c4nc(C)n(C(C)C)c4c3)n2)c(OC)cc1N1CCC(O)CC1 [Example 17, N-(2-(4-hydroxypiperidine-1-yl)-5-((4-(4-fluoro-1-isopropyl-2-methyl-1H-benzo[d]imidazole-6-yl)pyrimidin-2-yl)amino)-4-methoxyphenyl)acrylamide]
IC50 (WT EGFR; [3]): > 100 nM
IC50 [1, 4]: > 1000 nM
IC50 [2, 7]: 100 to 400 nM
IC50 (EGFR [L858R/T790M]; [6]): 1 to 50 nM

Structure (SMILES): C=CC(=O)Nc1cc(Nc2nccc(-c3ccc4nccn4n3)n2)c(OC)cc1N(C)CCN(C)C [Example 43, N-(2-((2-(dimethylamino)ethyl)(methyl)amino)-5-((4-(imidazo[1,2-b]pyridazine-6-yl)pyrimidin-2-yl)amino)-4-methoxyphenyl)acrylamide]
IC50 (WT EGFR; [3]): 50 to 100 nM
IC50 [1, 4]: > 1000 nM
IC50 [2, 5]: 100 to 400 nM
IC50 (EGFR [L858R/T790M]; [6]): 1 to 50 nM

Structure (SMILES): C=CC(=O)Nc1cc(Nc2nccc(-c3cc(F)c4nc(C)cn4c3)n2)c(OC)cc1N(C)CCN(C)C [Example 29, N-(2-((2-(dimethylamino)ethyl)(methyl)amino)-5-((4-(8-fluoro-2-methylimidazo[1,2-a]pyridine-6-yl)pyrimidin-2-yl)amino)-4-methoxyphenyl)acrylamide]
IC50 (WT EGFR; [3]): 1 to 50 nM
IC50 [1, 4]: 400 to 1000 nM
IC50 [2, 5]: 100 to 400 nM
IC50 (EGFR [L858R/T790M]; [6]): 1 to 50 nM

Structure (SMILES): C=CC(=O)Nc1cc(Nc2nccc(-c3cc(F)c4nc(OC)n(C(C)C)c4c3)n2)c(OC)cc1N(C)CCN(C)C [Example 6, N-(2-((2-(dimethylamino)ethyl)(methyl)amino)-5-((4-(4-fluoro-1-isopropyl-2-methoxy-1H-benzo[d]imidazole-6-yl)pyrimidin-2-yl)amino)-4-methoxyphenyl)acrylamide]
IC50 (WT EGFR; [3]): 1 to 50 nM
IC50 [1, 4]: > 1000 nM
IC50 [2, 5]: 10 to 100 nM
IC50 (EGFR [L858R/T790M]; [6]): < 1 nM

Structure (SMILES): C=CC(=O)Nc1cc(Nc2nccc(-c3ccc4nc(C)n(C(C)C)c4c3)n2)c(OC)cc1N(C)CCN(C)C [Example 35, N-(2-((2-(dimethylamino)ethyl)(methyl)amino)-5-((4-(1-isopropyl-2-methyl-1H-benzo[d]imidazole-6-yl)pyrimidin-2-yl)amino)-4-methoxyphenyl)acrylamide]
IC50 (WT EGFR; [3]): 1 to 50 nM
IC50 [1, 4]: 400 to 1000 nM
IC50 [2, 5]: 10 to 100 nM
IC50 (EGFR [L858R/T790M]; [6]): < 1 nM

Structure (SMILES): C=CC(=O)Nc1cc(Nc2nccc(-c3cc(F)c4nc(C)oc4c3)n2)c(OC)cc1N(C)CCN(C)C [Example 32, N-(2-((2-(dimethylamino)ethyl)(methyl)amino)-5-((4-(4-fluoro-2-methylbenzo[d]oxazole-6-yl)pyrimidin-2-yl)amino)-4-methoxyphenyl)acrylamide]
IC50 (WT EGFR; [3]): 1 to 50 nM
IC50 [1, 4]: > 1000 nM
IC50 [2, 5]: 10 to 100 nM
IC50 (EGFR [L858R/T790M]; [6]): 1 to 50 nM

Structure (SMILES): C=CC(=O)Nc1cc(Nc2nccc(-c3cc(F)c4nc(C)n(C(C)C)c4c3)n2)c(OCC(F)(F)F)cc1N(C)CCN(C)C [Example 49, N-(2-((2-(dimethylamino)ethyl)(methyl)amino)-5-((4-(4-fluoro-1-isopropyl-2-methyl-1H-benzo[d]imidazole-6-yl)pyrimidin-2-yl)amino)-4-(2,2,2-trifluoroethoxy)phenyl)acrylamide]
IC50 (WT EGFR; [3]): < 1 nM
IC50 [1, 4]: 10 to 100 nM
IC50 [2, 7]: < 10 nM
IC50 (EGFR [L858R/T790M]; [6]): < 1 nM

The next lines start with results.

IC50 (WT EGFR; [3]): 1 to 50 nM
IC50 (EGFR [L858R/T790M]; [6]): < 1 nM
Structure (SMILES): C=CC(=O)Nc1cc(Nc2nccc(-c3cc(F)c4nc(C(F)F)n(C(C)C)c4c3)n2)c(OC)cc1N(C)CCN(C)C [Example 60, N-(5-((4-(2-(difluoromethyl)-4-fluoro-1-isopropyl-1H-benzo[d]imidazol-6-yl)pyrimidin-2-yl)amino)-2-((2-(dimethylamino)ethyl)(methyl)amino)-4-methoxyphenyl)acrylamide]
IC50 [1, 4]: 400 to 1000 nM
IC50 [2, 5]: 10 to 100 nM

IC50 (WT EGFR; [3]): 1 to 50 nM
IC50 (EGFR [L858R/T790M]; [6]): 1 to 50 nM
Structure (SMILES): [2H]C(C)(C)n1c(C)nc2ccc(-c3ccnc(Nc4cc(NC(=O)C=C)c(N(C)CCN(C)C)cc4OC)n3)cc21 [Example 51, N-(2-((2-(dimethylamino)ethyl)(methyl)amino)-4-methoxy-5-((4-(2-methyl-1-(propyl-2-yl-2-d)-1H-benzo[d]imidazole-6-yl)pyrimidin-2-yl)amino)phenyl)acrylamide]
IC50 [1, 4]: 100 to 400 nM
IC50 [2, 5]: 10 to 100 nM

IC50 (WT EGFR; [3]): 1 to 50 nM
IC50 (EGFR [L858R/T790M]; [6]): < 1 nM
Structure (SMILES): C=CC(=O)Nc1cc(Nc2nccc(-c3cc4c5c(c3)nc(OC)n5CCC4)n2)c(OC)cc1N(C)CCN(C)C [Example 45, N-(2-((2-(dimethylamino)ethyl)(methyl)amino)-4-methoxy-5-((4-(2-methoxy-5,6-dihydro-4H-imidazo[4,5,1-ij]quinolin-8-yl)pyrimidin-2-yl)amino)phenyl)acrylamide]
IC50 [1, 4]: 400 to 1000 nM
IC50 [2, 5]: 10 to 100 nM

IC50 (WT EGFR; [3]): 1 to 50 nM
IC50 (EGFR [L858R/T790M]; [6]): 1 to 50 nM
Structure (SMILES): COc1cc(N2CCN(C)CC2)ccc1Nc1ncc(F)c(-c2cc(F)c3nc(C)n(C(C)C)c3c2)n1 [Example 55, 5-fluoro-4-(4-fluoro-1-isopropyl-2-methyl-1H-benzo[d]imidazole-6-yl)-N-(2-methoxy-4-(4-methylpiperazin-1-yl)phenyl)pyrimidin-2-amine]
IC50 [1, 4]: 400 to 1000 nM
IC50 [2, 5]: 400 to 1000 nM

IC50 (WT EGFR; [3]): 1 to 50 nM
IC50 (EGFR [L858R/T790M]; [6]): < 1 nM
Structure (SMILES): C=CC(=O)Nc1cc(Nc2nccc(-c3cc(F)c4nc(C)n(C(C)C)c4c3)n2)c(OC)cc1N(C)CCN(C)C [Example 53, N-(2-((2-(dimethylamino)ethyl)(methyl)amino)-5-((4-(4-fluoro-1-isopropyl-2-methyl-1H-benzo[d]imidazole-6-yl)pyrimidin-2-yl)amino)-4-methoxyphenyl)acrylamide]
IC50 [1, 4]: 400 to 1000 nM
IC50 [2, 5]: < 10 nM

IC50 (WT EGFR; [3]): > 100 nM
IC50 (EGFR [L858R/T790M]; [6]): 1 to 50 nM
Structure (SMILES): C=C(C)c1c(C)nc2c(F)cc(-c3nc(Nc4ccc(N5CCN(C)CC5)cc4OC)ncc3F)cn12 [Example 57, 5-fluoro-4-(8-fluoro-2-methyl-3-(prop-1-en-2-yl)imidazo[1,2-a]pyridine-6-yl)-N-(2-methoxy-4-(4-methylpiperazin-1-yl)phenyl)pyrimidin-2-amine]
IC50 [1, 4]: > 1000 nM
IC50 [2, 5]: > 1000 nM

IC50 (WT EGFR; [3]): 1 to 50 nM
IC50 (EGFR [L858R/T790M]; [6]): < 1 nM
Structure (SMILES): [2H]C([2H])([2H])C(n1c(C)nc2ccc(-c3ccnc(Nc4cc(NC(=O)C=C)c(N(C)CCN(C)C)cc4OC)n3)cc21)C([2H])([2H])[2H] [Example 52, N-(2-((2-(dimethylamino)ethyl)(methyl)amino)-4-methoxy-5-((4-(2-methyl-1-(propyl-2-yl-1,1,1,3,3,3-d6)-1H-benzo[d]imidazole-6-yl)pyrimidin-2-yl)amino)phenyl)acrylamide]
IC50 [1, 4]: 100 to 400 nM
IC50 [2, 5]: < 10 nM

IC50 (WT EGFR; [3]): 1 to 50 nM
IC50 (EGFR [L858R/T790M]; [6]): < 1 nM
Structure (SMILES): C=CC(=O)Nc1cc(Nc2nccc(-c3cc(F)c4nc(OCC(F)F)n(C(C)C)c4c3)n2)c(OC)cc1N(C)CCN(C)C [Example 64, N-(5-((4-(2-(2,2-difluoroethoxy)-4-fluoro-1-isopropyl-1H-benzo[d]imidazol-6-yl)pyrimidin-2-yl)amino)-2-((2-(dimethylamino)ethyl)(methyl)amino)-4-methoxyphenyl)acrylamide]
IC50 [1, 4]: 100 to 400 nM
IC50 [2, 5]: 10 to 100 nM
